Read-outs that look alike come from different tables or passages of the source. Where only a bound is given, the exact number is not on record here.

The test concerns the target T1, G protein-coupled receptor 119 (GPR-119) (Mesocricetus auratus, UniProt A0A1U8CD06).
T1 construct: hamster-derived β-cells containing G protein-coupled receptor 119 (GPR-119), HIT-T15 cells; host or cells: HIT-T15 (hamster pancreatic β-cells)
T1 sequence (A0A1U8CD06 1-334): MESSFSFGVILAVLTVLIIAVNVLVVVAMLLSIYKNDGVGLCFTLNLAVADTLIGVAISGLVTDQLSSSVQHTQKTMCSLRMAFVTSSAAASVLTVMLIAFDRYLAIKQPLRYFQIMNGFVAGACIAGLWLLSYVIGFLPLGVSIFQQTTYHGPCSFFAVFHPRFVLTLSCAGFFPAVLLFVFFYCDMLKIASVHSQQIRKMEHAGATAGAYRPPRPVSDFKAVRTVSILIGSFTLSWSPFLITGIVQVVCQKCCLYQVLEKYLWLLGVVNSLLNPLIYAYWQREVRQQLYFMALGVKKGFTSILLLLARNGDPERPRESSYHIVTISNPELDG
Put plainly: Evaluation of cAMP activity in HIT-T15 cells (HTRF cAMP dynamic kit). The conditions noted are these: cAMP activation. The format is cell-based, hamster. How it is done: To check whether the cyclohexene derivatives according to the present invention activate cyclic adenosine monophosphate (cAMP), experiments were carried out, as follows.
The HIT-T15 cells were plated on a 96-well plate at 60,000 cells per well. On the next day of plating, the cells were treated with a varying concentration of each of the example compounds according to the present invention, and incubated at 37° C. for an hour. In this case, each of the treated compounds was used at six concentrations, ranging from […], to treat the cells.
The cyclic adenosine monophosphate (cAMP) activity was measured according to the manufacturer's instruction using a cAMP dynamic kit commercially available from Cis Bio Inc. (Bedford, Mass.). The cells were lysed, and a level of cAMP was determined by a competitive immunoassay using D2-labeled cAMP and a cryptate-labeled anti-cAMP antibody. Fluorescence was read in Flex Station (Molecular Devices). […] Unlabeled cAMP in the cell lysate competed with the D2-labeled cAMP against the cryptate-labeled antibody. Since a decrease in the measured intensity of the FRET signals represents a level of cAMP in the cells, the cAMP activities of the compounds are calculated as a change in FRET signals by adjusting an amount of dimethyl sulfoxide (DMSO).
In general terms: In TR-FRET formats the signal depends on donor and acceptor labels being close together.

The mark [1] stands for this setting: 1 h at 37° C., six concentrations, read-out: EC50.

On to `CC(C)(C)OC(=O)N1CCC(COc2ccc(C3=CCC(C(=O)NC4CC4)CC3)cc2)CC1` (stereo not shown) [Example 2, tert-butyl 4-((4-(4-(cyclopropylcarbamoyl)cyclohex-1-enyl)phenoxy)methyl)piperidine-1-carboxylate], for which the EC50 runs as follows: under setting [1], 40 nM; (read-out: EC50 value) no more than 50 nM.

Take `CC(C)(C)OC(=O)N1CCC(COc2ccc(C3=CCC(C(=O)NCC(F)F)CC3)cc2)CC1` (stereo not shown) [Example 3, tert-butyl 4-((4-(4-(2,2-difluoroethylcarbamoyl)cyclohex-1-enyl)phenoxy)methyl)piperidine-1-carboxylate]: the EC50 by setting is: under setting [1], 34 nM; (read-out: EC50 value) no more than 50 nM.

With `CC(C)(C)OC(=O)N1CCC(COc2ccc(C3=CCC(C(=O)NC[C@@H](O)CO)CC3)cc2)CC1` (stereo partly drawn) [Example 4, tert-butyl 4-((4-(4-((R)-2,3-dihydroxypropylcarbamoyl)cyclohex-1-enyl)phenoxy)methyl)piperidine-1-carboxylate], the EC50 under setting [1] was 150 nM.

`CC(C)(C)OC(=O)N1CCC(COc2ccc(C3=CCC(C(=O)N4CC[C@@H](O)C4)CC3)cc2)CC1` (stereo partly drawn) [Example 5, tert-butyl 4-((4-(4-((R)-3-hydroxypyrrolidine-1-carbonyl)cyclohex-1-enyl)phenoxy)methyl)piperidine-1-carboxylate]: the EC50 is, setting by setting: under setting [1], 29 nM; (read-out: EC50 value) no more than 50 nM.

For the compound `CN(CCCO)C(=O)C1CC=C(c2ccc(OCC3CCN(C(=O)OC(C)(C)C)CC3)cc2)CC1` (stereo not shown) [Example 6, tert-butyl 4-((4-(4-((3-hydroxypropyl)(methyl)carbamoyl)cyclohex-1-enyl)phenoxy)methyl)piperidine-1-carboxylate], the EC50 by setting is: under setting [1], 38 nM; (read-out: EC50 value) no more than 50 nM.

Turning to `CC(C)(C)OC(=O)N1CCC(COc2ccc(C3=CCC(C(=O)N4CCOCC4)CC3)cc2)CC1` (stereo not shown) [Example 7, tert-butyl 4-((4-(4-(morpholine-4-carbonyl)cyclohex-1-enyl)phenoxy)methyl)piperidine-1-carboxylate], the EC50 is, setting by setting: under setting [1], 13 nM; (read-out: EC50 value) no more than 50 nM.

Take `CCc1cnc(N2CCC(COc3ccc(C4=CCC(C(=O)N[C@H](C)CO)CC4)cc3)CC2)nc1` (stereo partly drawn) [Example 8, 4-(4-((1-(5-ethylpyrimidin-2-yl)piperidin-4-yl)methoxy)phenyl)-N-((R)-1-hydroxypropan-2-yl)cyclohex-3-enecarboxamide]: the EC50 under setting [1] was determined as 90 nM.

Turning to `CCc1cnc(N2CCC(COc3ccc(C4=CCC(C(=O)NCCCO)CC4)cc3)CC2)nc1` (stereo not shown) [Example 9, 4-(4-((1-(5-ethylpyrimidin-2-yl)piperidin-4-yl)methoxy)phenyl)-N-(3-hydroxypropyl)cyclohex-3-enecarboxamide], under setting [1], the EC50 was 75 nM.

As for `CC(C)(C)OC(=O)N1CCC(COc2ccc(C3=CCC(C(=O)NC[C@@H](O)CO)CC3)nc2)CC1` (stereo partly drawn) [Example 10, tert-butyl 4-((6-(4-((R)-2,3-dihydroxypropylcarbamoyl)cyclohex-1-enyl)pyridin-3-yloxy)methyl)piperidine-1-carboxylate], the EC50 under setting [1] came to 500 nM.

Regarding `C[C@@H](CO)NC(=O)C1CC=C(c2ccc(OCC3CCN(C(=O)OC(C)(C)C)CC3)cn2)CC1` (stereo partly drawn) [Example 11, tert-butyl 4-((6-(4-((S)-1-hydroxypropan-2-ylcarbamoyl)cyclohex-1-enyl)pyridin-3-yloxy)methyl)piperidine-1-carboxylate], the EC50 under setting [1] came to 110 nM.

Take `CCc1cnc(N2CCC(COc3ccc(C4=CCC(C(=O)NC[C@@H](O)CO)CC4)cc3)CC2)nc1` (stereo partly drawn) [Example 12, N-((R)-2,3-dihydroxypropyl)-4-(4-((1-(5-ethylpyrimidin-2-yl)piperidin-4-yl)methoxy)phenyl)cyclohex-3-enecarboxamide]: the EC50 under setting [1] came out at 80 nM.

For the compound `CCc1cnc(N2CCC(COc3ccc(C4=CCC(C(=O)N5CCOCC5)CC4)cc3)CC2)nc1` (stereo not shown) [Example 13, (4-(4-((1-(5-ethylpyrimidin-2-yl)piperidin-4-yl)methoxy)phenyl)cyclohex-3-enyl)(morpholino)methanone], the EC50 runs as follows: under setting [1], 13 nM; (read-out: EC50 value) no more than 50 nM.

For the compound `CCc1cnc(N2CCC(COc3ccc(C4=CCC(C(=O)NC(CO)CO)CC4)cc3)CC2)nc1` (stereo not shown) [Example 15, N-(1,3-dihydroxypropan-2-yl)-4-(4-((1-(5-ethylpyrimidin-2-yl)piperidin-4-yl)methoxy)phenyl)cyclohex-3-enecarboxamide], the EC50 under setting [1] turned out to be 370 nM.

Regarding `CCc1cnc(N2CCC(COc3ccc(C4=CCC(C(=O)N5CC[C@@H](O)C5)CC4)cc3)CC2)nc1` (stereo partly drawn) [Example 16, (4-(4-((1-(5-ethylpyrimidin-2-yl)piperidin-4-yl)methoxy)phenyl)cyclohex-3-enyl)((R)-3-hydroxypyrrolidin-1-yl)methanone], the EC50 was 13 nM under setting [1] and no more than 50 nM (read-out: EC50 value).

As to `CC(C)c1noc(N2CCC(COc3ccc(C4=CCC(C(=O)NC[C@@H](O)CO)CC4)cc3)CC2)n1` (stereo partly drawn) [Example 17, N-((R)-2,3-dihydroxypropyl)-4-(4-((1-(3-isopropyl-1,2,4-oxadiazol-5-yl)piperidin-4-yl)methoxy)phenyl)cyclohex-3-enecarboxamide], the 50% effective concentration (EC50) under setting [1] turned out to be 85 nM.

For `CC(C)c1noc(N2CCC(COc3ccc(C4=CCC(C(=O)NC[C@H](O)CO)CC4)cc3)CC2)n1` (stereo partly drawn) [Example 18, N-((S)-2,3-dihydroxypropyl)-4-(4-((1-(3-isopropyl-1,2,4-oxadiazol-5-yl)piperidin-4-yl)methoxy)phenyl)cyclohex-3-enecarboxamide], under setting [1], the EC50 came to 170 nM.

For `CC(C)c1noc(N2CCC(COc3ccc(C4=CCC(C(=O)N[C@@H](C)CO)CC4)cc3)CC2)n1` (stereo partly drawn) [Example 19, N-((S)-1-hydroxypropan-2-yl)-4-(4-((1-(3-isopropyl-1,2,4-oxadiazol-5-yl)piperidin-4-yl)methoxy)phenyl)cyclohex-3-enecarboxamide], the EC50 under setting [1] was determined as 110 nM.

Regarding `CC(C)c1noc(N2CCC(COc3ccc(C4=CCC(C(=O)N[C@H](C)CO)CC4)cc3)CC2)n1` (stereo partly drawn) [Example 20, N-((R)-1-hydroxypropan-2-yl)-4-(4-((1-(3-isopropyl-1,2,4-oxadiazol-5-yl)piperidin-4-yl)methoxy)phenyl)cyclohex-3-enecarboxamide], the EC50 under setting [1] turned out to be 90 nM.

As for `CCc1cnc(N2CCC(COc3ccc(C4=CCC(C(=O)N(C)CCO)CC4)cc3)CC2)nc1` (stereo not shown) [Example 21, 4-(4-((1-(5-ethylpyrimidin-2-yl)piperidin-4-yl)methoxy)phenyl)-N-(2-hydroxyethyl)-N-methylcyclohex-3-enecarboxamide], the EC50 reads like this: under setting [1], 16 nM; (read-out: EC50 value) no more than 50 nM.

In the case of `CC(C)c1noc(N2CCC(COc3ccc(C4=CCC(C(=O)NCC(C)(C)CO)CC4)cc3)CC2)n1` (stereo not shown) [Example 22, N-(3-hydroxy-2,2-dimethylpropyl)-4-(4-((1-(3-isopropyl-1,2,4-oxadiazol-5-yl)piperidin-4-yl)methoxy)phenyl)cyclohex-3-enecarboxamide], the EC50 was 41 nM under setting [1] and no more than 50 nM (read-out: EC50 value).

With `CC(C)c1noc(N2CCC(COc3ccc(C4=CCC(C(=O)NC(CO)CO)CC4)cc3)CC2)n1` (stereo not shown) [Example 23, N-(1,3-dihydroxypropan-2-yl)-4-(4-((1-(3-isopropyl-1,2,4-oxadiazol-5-yl)piperidin-4-yl)methoxy)phenyl)cyclohex-3-enecarboxamide], the EC50 under setting [1] is 160 nM.

Take `C[C@@H](CO)NC(=O)C1CC=C(c2ccc(OCC3CCN(C(=O)OC(C)(C)C)CC3)nc2)CC1` (stereo partly drawn) [Example 24, tert-butyl 4-((5-(4-((S)-1-hydroxypropan-2-ylcarbamoyl)cyclohex-1-enyl)pyridin-2-yloxy)methyl)piperidine-1-carboxylate]: the EC50 under setting [1] stood at 260 nM.

For the compound `C[C@H](CO)NC(=O)C1CC=C(c2ccc(OCC3CCN(C(=O)OC(C)(C)C)CC3)nc2)CC1` (stereo partly drawn) [Example 25, tert-butyl 4-((5-(4-((R)-1-hydroxypropan-2-ylcarbamoyl)cyclohex-1-enyl)pyridin-2-yloxy)methyl)piperidine-1-carboxylate], under setting [1], the EC50 stood at 210 nM.

Turning to `C[C@H](O)CNC(=O)C1CC=C(c2ccc(OCC3CCN(C(=O)OC(C)(C)C)CC3)nc2)CC1` (stereo partly drawn) [Example 26, tert-butyl 4-((5-(4-((S)-2-hydroxypropylcarbamoyl)cyclohex-1-enyl)pyridin-2-yloxy)methyl)piperidine-1-carboxylate], the EC50 under setting [1] came to 250 nM.

Regarding `C[C@@H](O)CNC(=O)C1CC=C(c2ccc(OCC3CCN(C(=O)OC(C)(C)C)CC3)nc2)CC1` (stereo partly drawn) [Example 27, tert-butyl 4-((5-(4-((R)-2-hydroxypropylcarbamoyl)cyclohex-1-enyl)pyridin-2-yloxy)methyl)piperidine-1-carboxylate], the EC50 under setting [1] was 310 nM.

One may read the EC50 as the midpoint of the concentration-response curve.
